# Measured values as given in ChEMBL document CHEMBL5634070, “Assessment of the structure-activity relationship and antileukemic activity of diacylpyramide compounds as human ClpP agonists” (Eur J Med Chem, 2023).
# Activity calls are given as the source filed them. The rule behind the calls is not given here.
# How the values were obtained:
# [1] = tested on: NB-4; assay: Antileukemic activity against human NB4 cells assessed as downregulation of UQCRC2 protein expression incubated for 24 hrs by Western blotting analysis; format: functional, cell-based
# [2] = target: T1, ATP-dependent Clp protease proteolytic subunit, mitochondrial (Homo sapiens, UniProt Q16740); assay: Agonist activity at human CLpP by measuring alpha-casein hydrolysis using alpha-casein as substrate preincubated for 10 mins followed by substrate addition and measured after 120 mins by Coomassie brilliant blue staining based SDS-PAGE assay
# T1 sequence (Q16740 whole entry): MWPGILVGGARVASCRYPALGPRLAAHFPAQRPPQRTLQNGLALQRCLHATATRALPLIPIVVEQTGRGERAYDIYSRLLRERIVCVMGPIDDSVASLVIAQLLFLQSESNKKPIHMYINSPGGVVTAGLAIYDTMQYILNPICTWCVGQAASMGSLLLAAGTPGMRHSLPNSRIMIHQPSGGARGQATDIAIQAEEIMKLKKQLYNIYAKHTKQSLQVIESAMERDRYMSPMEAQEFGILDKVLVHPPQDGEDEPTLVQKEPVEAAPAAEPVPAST
# [3] = tested on: MOLM-13; assay: Antileukemic activity against human MOLM-13 cells assessed as reduction in mitochondrial DNA content at 10 uM incubated for 24 hrs; format: functional, cell-based
# [4] = tested on: MV4-11; assay: Antiproliferative activity against human MV4-11 cells cultured as 3D cells assessed as inhibition of cell growth; format: functional, cell-based
# [5] = tested on: NB-4; assay: Antiproliferative activity against human NB4 cells assessed as inhibition of cell growth incubated for 72 hrs by CCK-8 assay; format: functional, cell-based; conditions: NB-4, 72 h
# [6] = target: T1, ATP-dependent Clp protease proteolytic subunit, mitochondrial; assay: Agonist activity at human CLpP by measuring alpha-casein hydrolysis using alpha-casein as substrate by FITC staining based assay
# [7] = tested on: MOLM-13; assay: Antiproliferative activity against human MOLM-13 cells assessed as inhibition of cell growth incubated for 72 hrs by CCK-8 assay; format: functional, cell-based; conditions: MOLM-13, 72 h
# [8] = target: T1, ATP-dependent Clp protease proteolytic subunit, mitochondrial; assay: Binding affinity to CLpP in human HEL cells assessed as thermal stabilization at 10 uM at 52.9 to 78 degreeC by cellular thermal shift assay; format: cell-based; conditions: filed as agonist
# [9] = tested on: MOLM-13; assay: Inhibition of mitochondrial respiration in human MOLM-13 cells assessed as reduction in oxygen consumption rate at 10 uM incubated for 24 hrs; format: functional, cell-based
# [10] = tested on: MV4-11; assay: Antileukemic activity against human MV4-11 cells assessed as reduction in mitochondrial DNA content at 10 uM incubated for 24 hrs; format: functional, cell-based
# [11] = Toxicity in BALB/c mouse xenografted with human MV4-11 cells assessed as change in body weight at 60 mg/kg,ip administrated for 30 days; format: organism-based; conditions: in vivo, 720 h, time 30 day
# [12] = tested on: HEL; assay: Antiproliferative activity against human HEL cells assessed as inhibition of cell growth incubated for 72 hrs by CCK-8 assay; format: functional, cell-based
# [13] = tested on: MV4-11; assay: Antileukemic activity against human MV4-11 cells xenografted in BALB/c mouse assessed as reduction in tumor volume at 30 mg/kg,ip administrated for 30 days; format: functional, organism-based; conditions: time 30.0 day
# [14] = target: T1, ATP-dependent Clp protease proteolytic subunit, mitochondrial; assay: Binding affinity to CLpP in human MV4-11 cells assessed as thermal stabilization at 10 uM at 52.9 to 78 degreeC by cellular thermal shift assay; format: cell-based; conditions: filed as agonist
# [15] = tested on: MV4-11; assay: Antileukemic activity against human MV4-11 cells xenografted in BALB/c mouse assessed as reduction in tumor volume at 60 mg/kg,ip administrated for 30 days; format: functional, organism-based; conditions: time 30.0 day
# [16] = target: T1, ATP-dependent Clp protease proteolytic subunit, mitochondrial; assay: Binding affinity to human CLpP assessed as change in melting temperature by DSF assay; conditions: filed as agonist
# [17] = tested on: NB-4; assay: Antileukemic activity against human NB4 cells assessed as downregulation of NDUFV2 protein expression incubated for 24 hrs by Western blotting analysis; format: functional, cell-based
# [18] = tested on: NB-4; assay: Antileukemic activity against human NB4 cells assessed as downregulation of NDUFB8 protein expression incubated for 24 hrs by Western blotting analysis; format: functional, cell-based
# [19] = tested on: NB-4; assay: Antileukemic activity against human NB4 cells assessed as downregulation of SDHA protein expression incubated for 24 hrs by Western blotting analysis; format: functional, cell-based
# [20] = tested on: NB-4; assay: Induction of apoptosis in human NB4 cells incubated for 24 to 72 hrs; format: functional, cell-based; conditions: time 24-72 hrs
# [21] = tested on: NB-4; assay: Antileukemic activity against human NB4 cells assessed as downregulation of SDHB protein expression incubated for 24 hrs by Western blotting analysis; format: functional, cell-based
# [22] = tested on: NB-4; assay: Antileukemic activity against human NB4 cells xenografted in BALB/c mouse assessed as reduction in tumor weight at 30 mg/kg,ip administrated for 30 days; format: functional, organism-based; conditions: time 30.0 day
# [23] = Toxicity in BALB/c mouse xenografted with human MV4-11 cells assessed as change in body weight at 30 mg/kg,ip administrated for 30 days; format: organism-based; conditions: in vivo, 720 h, time 30 day
# [24] = tested on: NB-4; assay: Antileukemic activity against human NB4 cells assessed as downregulation of NDUFA12 protein expression incubated for 24 hrs by Western blotting analysis; format: functional, cell-based
# [25] = tested on: MV4-11; assay: Antileukemic activity against human MV4-11 cells xenografted in BALB/c mouse assessed as reduction in tumor weight at 60 mg/kg,ip administrated for 30 days; format: functional, organism-based; conditions: time 30.0 day
# [26] = tested on: NB-4; assay: Antileukemic activity against human NB4 cells assessed as reduction in mitochondrial DNA content at 10 uM incubated for 24 hrs; format: functional, cell-based
# [27] = Toxicity in BALB/c mouse xenografted with human NB4 cells assessed as change in body weight at 60 mg/kg,ip administrated for 30 days; format: organism-based, NB-4; conditions: in vivo, 720 h, time 30 day
# [28] = tested on: NB-4; assay: Antileukemic activity against human NB4 cells xenografted in BALB/c mouse assessed as reduction in tumor volume at 60 mg/kg,ip administrated for 30 days; format: functional, organism-based; conditions: time 30.0 day
# [29] = target: T1, ATP-dependent Clp protease proteolytic subunit, mitochondrial; assay: Binding affinity to CLpP in human MOLM-13 cells assessed as thermal stabilization at 10 uM at 52.9 to 78 degreeC by cellular thermal shift assay; format: cell-based; conditions: filed as agonist
# [30] = tested on: HEL; assay: Antileukemic activity against human HEL cells assessed as reduction in mitochondrial DNA content at 10 uM incubated for 24 hrs; format: functional, cell-based
# [31] = tested on: MOLM-13; assay: Inhibition of mitochondrial respiration in human MOLM-13 cells assessed as reduction in oxygen consumption rate at 5 uM incubated for 24 hrs; format: functional, cell-based
# [32] = tested on: Cell membrane; assay: Induction of mitochondrial membrane potential loss in human MOLM-13 cells at 10 uM incubated upto 48 hrs by TMRE staining based assay
# [33] = tested on: NB-4; assay: Antileukemic activity against human NB4 cells xenografted in BALB/c mouse assessed as reduction in tumor weight at 60 mg/kg,ip administrated for 30 days; format: functional, organism-based; conditions: time 30.0 day
# [34] = tested on: MV4-11; assay: Antiproliferative activity against human MV4-11 cells assessed as inhibition of cell growth incubated for 72 hrs by CCK-8 assay; format: functional, cell-based; conditions: MV4-11, 72 h
# [35] = tested on: MOLM-13; assay: Induction of apoptosis in human MOLM-13 cells incubated for 24 to 72 hrs; format: functional, cell-based; conditions: time 24-72 hrs
# [36] = tested on: MV4-11; assay: Antileukemic activity against human MV4-11 cells xenografted in BALB/c mouse assessed as reduction in tumor weight at 30 mg/kg,ip administrated for 30 days; format: functional, organism-based; conditions: time 30.0 day
# [37] = tested on: MOLM-13; assay: Antiproliferative activity against human MOLM-13 cells assessed as inhibition of cell growth at 20 uM by CCK-8 assay relative to control; format: functional
# [38] = tested on: NB-4; assay: Inhibition of mitochondrial respiration in human NB4 cells assessed as reduction in oxygen consumption rate at 10 uM incubated for 24 hrs; format: functional, cell-based
# [39] = tested on: MV4-11; assay: Inhibition of mitochondrial respiration in human MV4-11 cells assessed as reduction in oxygen consumption rate at 5 uM incubated for 24 hrs; format: functional, cell-based
# [40] = tested on: NB-4; assay: Antileukemic activity against human NB4 cells xenografted in BALB/c mouse assessed as reduction in tumor volume at 30 mg/kg,ip administrated for 30 days; format: functional, organism-based; conditions: time 30.0 day
# [41] = tested on: MV4-11; assay: Inhibition of mitochondrial respiration in human MV4-11 cells assessed as reduction in oxygen consumption rate at 10 uM incubated for 24 hrs; format: functional, cell-based
# [42] = tested on: NB-4; assay: Inhibition of colony formation in human NB4 cells incubated for 14 days; format: functional, cell-based; conditions: time 14.0 day
# [43] = tested on: NB-4; assay: Inhibition of mitochondrial respiration in human NB4 cells assessed as reduction in oxygen consumption rate at 5 uM incubated for 24 hrs; format: functional, cell-based
# [44] = tested on: MV4-11; assay: Induction of apoptosis in human MV4-11 cells incubated for 24 to 72 hrs; format: functional, cell-based; conditions: time 24-72 hrs
# [45] = tested on: MOLM-13; assay: Antileukemic activity against human MOLM-13 cells assessed as reduction in cellular ATP content at 10 uM incubated upto 48 hrs; format: functional, cell-based
# [46] = Toxicity in BALB/c mouse xenografted with human NB4 cells assessed as change in body weight at 30 mg/kg,ip administrated for 30 days; format: organism-based, NB-4; conditions: in vivo, 720 h, time 30 day
smiles,measurement,setting,value
CC[C@H](C)[C@H]1C(=O)N(Cc2ccc(OC)c3ccccc23)C[C@@H]2N(C(=O)NCc3ccc(Br)cc3)CCC(=O)N12,Activity,[1],Dose-Dependent Effect
same,EC50,[2],2.2 µM
same,Activity,[3],Active
same,Activity,[4],Dose-Dependent Effect
same,IC50,[5],4.9 µM
same,EC50,[6],0.54 µM
same,IC50,[7],2.9 µM
same,Activity,[8],Active
same,inhibition,[9],Active
same,Activity,[10],Active
same,Activity,[11],Non-Toxic
same,IC50,[12],3.3 µM
same,Activity,[13],Active
same,Activity,[14],Active
same,Activity,[15],Active
same,ΔTm,[16],21.8 °C
same,Activity,[17],Dose-Dependent Effect
same,Activity,[18],Dose-Dependent Effect
same,Activity,[19],Dose-Dependent Effect
same,Activity,[20],Active
same,Activity,[21],Dose-Dependent Effect
same,Activity,[22],Active
same,Activity,[23],Non-Toxic
same,Activity,[24],Dose-Dependent Effect
same,Activity,[25],Active
same,Activity,[26],Active
same,Activity,[27],Non-Toxic
same,Activity,[28],Active
same,Activity,[29],Active
same,Activity,[30],Active
same,inhibition,[31],Active
same,Activity,[32],Active
same,Activity,[33],Active
same,IC50,[34],5.8 µM
same,Activity,[35],Active
same,Activity,[36],Active
same,inhibition at 20 µM,[37],99.6%
same,inhibition,[38],Active
same,inhibition,[39],Active
same,Activity,[40],Active
same,inhibition,[41],Active
same,inhibition,[42],Dose-Dependent Effect
same,inhibition,[43],Active
same,Activity,[44],Active
same,Activity,[45],Active
same,Activity,[46],Non-Toxic
